The record followed here is ChEMBL document CHEMBL1151524, “Synthesis and evaluation of pyrazolo[3,4-b]quinoline ribofuranosides and their derivatives as inhibitors of oncogenic Ras” (Bioorg Med Chem Lett, 1996).

Assay [1] concerns the target T1, GTPase HRas (Homo sapiens, UniProt P01112). Put plainly: Inhibition of nucleotide exchange process of oncogenic Ras in vitro.
Assay [2] concerns the target T1, GTPase HRas. The assay can be described thus: Inhibition of nucleotide exchange process of oncogenic Ras at concentration 50 uM.
Assay [3] addresses T1, GTPase HRas. The assay can be described thus: In vitro for inhibition of nucleotide exchange process of oncogenic Ras.

T1 sequence (P01112 whole entry, looked up): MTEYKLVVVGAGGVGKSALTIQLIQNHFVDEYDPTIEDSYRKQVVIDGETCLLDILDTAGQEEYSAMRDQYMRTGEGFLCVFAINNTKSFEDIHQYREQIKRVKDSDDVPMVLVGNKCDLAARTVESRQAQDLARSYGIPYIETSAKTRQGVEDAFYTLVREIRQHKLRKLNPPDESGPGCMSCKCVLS

On to `COc1ccc2nc3c(c(C)nn3[C@H]3CN(Sc4ccccc4[N+](=O)[O-])C[C@@H](CO[Si](C)(C)C(C)(C)C)O3)c(Cl)c2c1`, for which half-maximal inhibition against GTPase HRas [1] (IC50) required 1 µM.

For the molecule `COc1ccc2nc3c(c(C)nn3[C@H]3CNC[C@@H](CO)O3)c(Cl)c2c1`, the inhibition on GTPase HRas [2] stood at 0%.

Regarding `COc1ccc2nc3c(c(C)nn3[C@@H]3O[C@H](OC(O)CC(=O)c4ccccc4)[C@H]4OC(=S)O[C@H]43)c(Cl)c2c1` (stereo not given in full), the IC50 at GTPase HRas [1] amounted to 1.5 µM.

In the case of `COc1ccc2nc3c(c(C)nn3[C@H]3CN(S(=O)(=O)c4ccccc4)C[C@@H](CO)O3)c(Cl)c2c1`, the IC50 against GTPase HRas [1] stood at 12 µM.

`COc1ccc2nc3c(c(C)nn3[C@@H]3O[C@H](OCc4ccccc4)[C@@H](OCc4ccccc4)[C@H]3OCc3ccccc3)c(Cl)c2c1` yielded an inhibition at GTPase HRas [2] of 35%.

On GTPase HRas [2], `COc1ccc2nc3c(c(C)nn3[C@H]3CN(Sc4ccccc4[N+](=O)[O-])C[C@@H](C/C=C/C(C)=O)O3)c(Cl)c2c1` had an inhibition of 88%.

Consider `COc1ccc2nc3c(c(C)nn3[C@H]3CN(S(=O)(=O)c4ccccc4)C[C@@H](CO[Si](C)(C)C(C)(C)C)O3)c(Cl)c2c1`, for which 14 µM corresponded to half-maximal inhibition against GTPase HRas [1] (IC50).

For the molecule `COc1ccc2nc3c(c(C)nn3[C@H]3CN(Sc4ccc([N+](=O)[O-])cc4)C[C@@H](CO)O3)c(Cl)c2c1`, inhibition against GTPase HRas [1] was half-maximal at 6.7 µM (IC50).

`COc1ccc2nc3c(c(C)nn3[C@H]3C=C[C@@H](OC(O)CC(=O)c4ccccc4)O3)c(Cl)c2c1` (stereo not given in full) showed an inhibition against GTPase HRas [2] of 48%.

As to `COc1ccc2nc3c(c(C)nn3[C@@H]3O[C@H](COC(=O)c4ccccc4)[C@@H](OCc4ccccc4)[C@H]3OCc3ccccc3)c(Cl)c2c1`, the inhibition against GTPase HRas [2] turned out to be 53%.

For `COc1ccc2nc3c(c(C)nn3[C@H]3C=C[C@@H](O/C=C/C(=O)c4ccccc4)O3)c(Cl)c2c1`, on GTPase HRas [1], the IC50 came out at 35 µM.

Take `COc1ccc2nc3c(c(C)nn3[C@H]3CN(S(=O)(=O)c4ccc(NC(C)=O)cc4)C[C@@H](CO[Si](C)(C)C(C)(C)C)O3)c(Cl)c2c1`: at GTPase HRas [1], the IC50 was found to be 27 µM.

For `CCOC(=O)/C=C/C[C@@H]1CN(Sc2ccc([N+](=O)[O-])cc2)C[C@H](n2nc(C)c3c(Cl)c4cc(OC)ccc4nc32)O1`, the inhibition against GTPase HRas [2] was determined as 64%.

Regarding `COc1ccc2nc3c(c(C)nn3[C@@H]3O[C@H](COC(=O)C(C)C)[C@@H](OC(=O)C(C)C)[C@H]3OC(=O)C(C)C)c(Cl)c2c1`, the inhibition against GTPase HRas [2] amounted to 33%.

On to `COc1ccc2nc3c(c(C)nn3[C@@H]3O[C@H](COC(=O)c4ccccc4)[C@@H](OC(C)=O)[C@H]3OC(C)=O)c(Cl)c2c1`, for which, at GTPase HRas [2], the inhibition was 44%.

Turning to `COc1ccc2nc3c(c(C)nn3[C@H]3CC[C@@H](COC(=O)c4ccccc4)O3)c(Cl)c2c1`, the inhibition on GTPase HRas [2] turned out to be 38%.

`COc1ccc2nc3c(c(C)nn3[C@H]3CN(Sc4ccccc4[N+](=O)[O-])C[C@@H](C/C=C/C(=O)c4ccccc4)O3)c(Cl)c2c1` had an IC50 at GTPase HRas [1] of 4.7 µM.

Molecule `COc1ccc2nc3c(c(C)nn3[C@H]3CN(Sc4ccc([N+](=O)[O-])cc4)C[C@@H](CO[Si](C)(C)C(C)(C)C)O3)c(Cl)c2c1` displayed an IC50 against GTPase HRas [1] of 50 µM.

The molecule `COc1ccc2nc3c(c(C)nn3[C@H]3CN(S(=O)(=O)c4ccc([N+](=O)[O-])cc4)C[C@@H](CO)O3)c(Cl)c2c1` came in with an IC50 against GTPase HRas [1] of 8 µM.

For the molecule `COc1ccc2nc3c(c(C)nn3[C@@H]3O[C@H](COC(=O)c4ccc([N+](=O)[O-])cc4)[C@@H](OC(=O)c4ccc([N+](=O)[O-])cc4)[C@H]3OC(=O)c3ccc([N+](=O)[O-])cc3)c(Cl)c2c1`, the inhibition against GTPase HRas [2] was determined as 59%.

Take `COc1ccc2nc3c(c(C)nn3[C@H]3CN(S(=O)(=O)c4ccc([N+](=O)[O-])cc4)C[C@@H](CO[Si](C)(C)C(C)(C)C)O3)c(Cl)c2c1`: the IC50 on GTPase HRas [1] is 5 µM.

Molecule `COc1ccc2nc3c(c(C)nn3[C@@H]3O[C@H](COC(=O)Cc4ccccc4)[C@@H](OC(=O)Cc4ccccc4)[C@H]3OC(=O)Cc3ccccc3)c(Cl)c2c1` came in with an inhibition against GTPase HRas [2] of 62%.

`COc1ccc2nc3c(c(C)nn3[C@H]3C=C[C@@H](COC(=O)c4ccccc4)O3)c(Cl)c2c1` showed an IC50 against GTPase HRas [1] of 80 µM.

The molecule `COc1ccc2nc3c(c(C)nn3[C@H]3CN(Sc4ccccc4[N+](=O)[O-])C[C@@H](CO)O3)c(Cl)c2c1` displayed an IC50 against GTPase HRas [1] of 14 µM.

`COc1ccc2nc3c(c(C)nn3[C@@H]3O[C@H](COC(=O)c4ccccc4)[C@H]4OC(=S)O[C@H]43)c(Cl)c2c1`: the IC50 against GTPase HRas [1] was 15 µM.

As to `COc1ccc2nc3c(c(C)nn3[C@@H]3O[C@H](COC(=O)c4ccccc4)[C@@H](O)[C@H]3O)c(Cl)c2c1`, the inhibition against GTPase HRas [2] came out at 16%.

At GTPase HRas [2], `COc1ccc(C(=O)OC[C@H]2O[C@@H](n3nc(C)c4c(Cl)c5cc(OC)ccc5nc43)[C@H](OC(=O)c3ccc(OC)cc3)[C@@H]2OC(=O)c2ccc(OC)cc2)cc1` showed an inhibition of 44%.

As for `COc1ccc2nc3c(c(C)nn3[C@H]3CN(Sc4ccc([N+](=O)[O-])cc4)C[C@@H](C/C=C/C(C)=O)O3)c(Cl)c2c1`, half-maximal inhibition against GTPase HRas [1] (IC50) was put at 3 µM.

`COc1ccc2nc3c(c(C)nn3[C@H]3C=C[C@@H](OCCC(=O)c4ccccc4)O3)c(Cl)c2c1` gave an inhibition against GTPase HRas [2] of 25%.

At GTPase HRas [2], `COc1ccc2nc3c(c(C)nn3[C@@H]3O[C@H](COC(=O)c4ccoc4)[C@@H](OC(=O)c4ccoc4)[C@H]3OC(=O)c3ccoc3)c(Cl)c2c1` displayed an inhibition of 49%.

As for `COc1ccc2nc3c(c(C)nn3[C@@H]3O[C@H](COC(=O)c4ccccc4)[C@@H](OC(=O)c4ccccc4)[C@H]3OC(=O)c3ccccc3)c(Cl)c2c1`, on GTPase HRas [3], it took 10 µM to reach half-maximal inhibition (IC50).

As for `COc1ccc2nc3c(c(C)nn3[C@@H]3O[C@H](COC(=O)c4ccco4)[C@@H](OC(=O)c4ccco4)[C@H]3OC(=O)c3ccco3)c(Cl)c2c1`, the IC50 at GTPase HRas [1] turned out to be 10.5 µM.

On to `COc1ccc2nc3c(c(C)nn3[C@@H]3O[C@H](O/C=C/C(=O)c4ccccc4)[C@@H](O)[C@H]3O)c(Cl)c2c1`, for which, at GTPase HRas [1], half-maximal inhibition (IC50) required 10 µM.

As for `CCOC(=O)/C=C/C[C@@H]1CN(Sc2ccccc2[N+](=O)[O-])C[C@H](n2nc(C)c3c(Cl)c4cc(OC)ccc4nc32)O1`, the IC50 against GTPase HRas [1] turned out to be 16 µM.

On GTPase HRas [1], `COc1ccc2nc3c(c(C)nn3[C@H]3CN(S(=O)(=O)c4ccc([N+](=O)[O-])cc4)C[C@@H](C/C=C/C(=O)c4ccccc4)O3)c(Cl)c2c1` registered an IC50 of 7 µM.

`COc1ccc2nc3c(c(C)nn3[C@@H]3O[C@H](COC(=O)c4cccnc4)[C@@H](OC(=O)c4cccnc4)[C@H]3OC(=O)c3cccnc3)c(Cl)c2c1` came in with an inhibition against GTPase HRas [2] of 33%.

Regarding `COc1ccc2nc3c(c(C)nn3[C@@H]3O[C@H](COC(C)=O)[C@@H](OC(C)=O)[C@H]3OC(C)=O)c(Cl)c2c1`, at GTPase HRas [2], the inhibition came to 3%.

For `COc1ccc2nc3c(c(C)nn3[C@H]3CN(S(=O)(=O)c4ccccc4)C[C@@H](COC(=O)c4ccccc4)O3)c(Cl)c2c1`, the inhibition on GTPase HRas [2] turned out to be 47%.

Regarding `COc1ccc2nc3c(c(C)nn3[C@H]3CN(Sc4ccc([N+](=O)[O-])cc4)C[C@@H](C/C=C/C(=O)c4ccccc4)O3)c(Cl)c2c1`, the IC50 on GTPase HRas [1] was 7.4 µM.

At GTPase HRas [2], `COc1ccc2nc3c(c(C)nn3[C@@H]3O[C@H](O/C=C/C(=O)c4ccccc4)[C@H]4OC(C)(C)O[C@H]43)c(Cl)c2c1` showed an inhibition of 53%.

The term IC50 denotes the concentration needed to halve the response being measured. A high value points to a need for much substance. The inhibition is the relative decrease from the control value, in per cent.
